# From article PMC3793924, “Targeting Androgen Receptor/Src Complex Impairs the Aggressive Phenotype of Human Fibrosarcoma Cells” (PLoS ONE, 2013)
# How the values were obtained:
# [1] = system: HCT116 cells; test: BrdU incorporation in HCT116 cells; format: cell-based, human; settings: quiescent HCT116 cells, EGF 100 ng/ml, 18 h; for Inhibition of EGF-induced BrdU incorporation: Casodex 10 μM, S1 and Ss peptides 10 nM
# Method: (§1) Quiescent human colon cancer-derived HCT116 cells were used. In A, cells on coverslips were left un-stimulated or stimulated for 18 h with the indicated compounds. […] After in vivo pulse with BrdU (100 μM), BrdU incorporation was analyzed by IF and expressed as % of total cells. Several independent experiments were performed in duplicate and the results were derived from at least 400 scored cells for each coverslip. Mean and SEM are shown. n represents the number of experiments. In B, the cells were left untreated or treated for 6 h with the indicated compounds. […] Cells were allowed to migrate in collagen-pre-coated Trans-well filters. Migrated cells were stained and counted as reported in Methods. Results were derived from several independent experiments, each performed in duplicate. Data are expressed as relative increase. Mean and SEM are shown. n represents the number of experiments. Quiescent human pancreatic cancer-derived KP-2 cells were used. In C, cells on coverslips were left unstimulated or stimulated for 18 h with the indicated compounds. […] After in vivo pulse with BrdU (100 μM), BrdU incorporation was analyzed by IF and expressed as % of total cells. Several independent experiments were performed in duplicate and the results were derived from at least 400 scored cells for each coverslip. Mean and SEM are shown. n represents the number of experiments. In D, the cells were left untreated or treated for 6 h with the indicated compounds. […] Cells were allowed to migrate in collagen-pre-coated Trans-well filters. Migrated cells were stained and counted as reported in Methods. Results were derived from several independent experiments, each performed in duplicate. Data are expressed as relative increase. Mean and SEM are shown. n represents the number of experiments. […] After in vivo labeling with 100 μM BrdU (Sigma), DNA synthesis was analyzed by immunofluorescence, using diluted (1:50 in PBS) mouse monoclonal anti-BrdU antibody (clone BU-1, from GE Healthcare).
# [2] = system: LNCaP cells; test: BrdU incorporation in LNCaP cells; format: cell-based, human; settings: quiescent LNCaP cells, EGF 100 ng/ml, 18 h; for Inhibition of EGF-induced BrdU incorporation: Casodex 10 μM, S1 and Ss peptides 10 nM
# Method: (§2) Quiescent human prostate cancer-derived LNCaP cells were used. In A, quiescent cells on coverslips were left unstimulated or stimulated for 18 h with the indicated compounds. […] After in vivo pulse with BrdU (100 μM), BrdU incorporation was analyzed by IF and expressed as % of total cells. Several independent experiments were performed in duplicate and the results were derived from at least 600 scored cells for each coverslip. Mean and SEM are shown. n represents the number of experiments. In B, the cells were left untreated or treated for 6 h with the indicated compounds. […] Cells were allowed to migrate in collagen pre-coated Trans-well filters. Migrated cells were stained and counted as reported in Methods. Results were derived from several independent experiments, each performed in duplicate. Data are expressed as relative increase. Mean and SEM are shown. n represents the number of experiments. Quiescent human breast cancer-derived MCF-7 cells were used. In C, quiescent cells on coverslips were left un-stimulated or stimulated for 18 h with the indicated compounds. […] After in vivo pulse with BrdU (100 μM), BrdU incorporation was analyzed by IF and expressed as % of total cells. Several independent experiments were performed in duplicate and the results were derived from at least 500 scored cells for each coverslip. Mean and SEM are shown. n represents the number of experiments. In D, the cells were left untreated or treated for 6 h with the indicated compounds. […] Cells were allowed to migrate in collagen-pre-coated Trans-well filters. Migrated cells were stained and counted as reported in Methods. Results were derived from several independent experiments, each performed in duplicate. Data are expressed as relative increase. Mean and SEM are shown. n represents the number of experiments.
# [3] = system: MCF-7 cells; test: BrdU incorporation in MCF-7 cells; format: cell-based, human; settings: quiescent MCF-7 cells, EGF 100 ng/ml, 18 h; for Inhibition of EGF-induced BrdU incorporation: Casodex 10 μM, S1 and Ss peptides 1nM
# Method: as §2
# [4] = system: HT1080 cells; test: Wound scratch assay in HT1080 cells; format: cell-based, human; settings: quiescent HT1080 cells, 6 h, EGF 100 ng/ml; for Effect on EGF-induced wound closure (migration): Casodex 10 μM, S1 and Ss peptides 10 nM
# [5] = system: KP-2 cells; test: BrdU incorporation in KP-2 cells; format: cell-based, human; settings: quiescent KP-2 cells, EGF 100 ng/ml, 18 h; for Inhibition of EGF-induced BrdU incorporation: Casodex 10 μM, S1 and Ss peptides 10 nM
# Method: as §1
# [6] = system: KP-2 cells; test: Trans-well migration of KP-2 cells; format: cell-based, human; settings: quiescent KP-2 cells, 6 h, EGF 100 ng/ml; for Inhibition of EGF-induced motility (transmigration): Casodex 10 μM, S1 and Ss peptides 10 nM
# [7] = system: MMP-9; test: Protease activity of MMP-9 released from HT1080 cells; format: cell-based, human; settings: quiescent HT1080 cells; for Inhibition of EGF-stimulated MMP-9 secretion (protease activity): EGF 100 ng/ml 5 min, Casodex 10 μM, S1 and Ss peptides 10 nM added 30 min before EGF
# [8] = Body weight of xenografted mice; format: in vivo; settings: Casodex i.p. on alternate days, 4 weeks; weighed twice weekly
# From the text: HT1080 cells in 50% (v/v) Matrigel solution in phosphate-buffered saline (PBS; pH 7.4) were subcutaneously injected in the dorsal posterior region at 2.5 x 10^6 cells/male athymic mice (CD mice, Charles-River Italia) without hormone priming. Animals were randomly selected for the treatment with Casodex (dissolved in 0.1% ethanol) or DHT (dissolved in 0.1% ethanol) or control vehicle intra-peritoneally for a total of 4 weeks. Each group consisted of six animals. For the treatment of each animal (average weight: 25.08 g), 200 μl of 1 μM Casodex (about 0.1 µg) in 0.1% ethanol or 200 μl of 1 μM DHT (about 3 μg/Kg body weight) or the same amount of vehicle alone were administered to the mice on alternate days. The tumor volumes of HT1080 cell xenografts were measured at indicated intervals in two dimensions by a caliper and expressed as tumor mass (mm^3). This is calculated according to the formula: a^2 × b × 0.5, where a is the width and b is the length of the tumor. Food and water were given ad libitum. […] Animal experimentation was reviewed and approved by the Animal Research Ethical Committee of “Istituto per la Diagnosi e la Cura dei Tumori- Fondazione “G. Pascale” (Naples-ITALY).
# [9] = system: HT1080 cells; settings: various cell types, including HT1080 cells (Figure S1); cited from earlier work
# From the text: Such a crosstalk has been previously analyzed in prostate cancer-derived LNCaP cells. […] The S1 peptide derives from the 377-386 amino-acid sequence of AR that is rich in prolines and is responsible for association of AR with t ...
Molecule,Inhibition of EGF-induced BrdU incorporation [1],Inhibition of EGF-induced BrdU incorporation [2],Inhibition of EGF-induced BrdU incorporation [3],Effect on EGF-induced wound closure (migration) [4],Inhibition of EGF-induced BrdU incorporation [5],Inhibition of EGF-induced motility (transmigration) [6],Inhibition of EGF-stimulated MMP-9 secretion (protease activity) [7],Body weight versus control mice [8],Diffusion across membranes [9],BrdU incorporation upon stimulation [1],BrdU incorporation upon stimulation [2],BrdU incorporation upon stimulation [3],Wound closure upon stimulation [4],BrdU incorporation upon stimulation [5],Motility upon stimulation [6],"Increase of protease activity of MMP-9 released ([7]; EGF 100 ng/ml, 5 min)"
Ac-HPKPARIPHP-NH2 [Ss peptide],does not interfere with the EGF-elicited responses,only slightly affects DNA synthesis,only slightly affects DNA synthesis,much weaker inhibitory effect,does not interfere with the EGF-elicited responses,does not interfere with the EGF-elicited responses,negligible inhibitory effect,,,,,,,,,
CC(O)(CS(=O)(=O)c1ccc(F)cc1)C(=O)Nc1ccc(C#N)c(C(F)(F)F)c1 (stereo not drawn) [Casodex],similarly inhibit these EGF-elicited responses,inhibits EGF-induced BrdU incorporation,inhibits EGF-induced BrdU incorporation,Only few cells migrate,inhibit both DNA synthesis and motility,inhibit both DNA synthesis and motility,inhibits this response,no difference in body weight,,,,,,,,
Ac-PPPHPHARIK-NH2 [S1 peptide],similarly inhibit these EGF-elicited responses,abolishes the mitogenic response elicited by EGF,abolishes the mitogenic response elicited by EGF,consistently inhibits the EGF-induced effect,inhibit both DNA synthesis and motility,inhibit both DNA synthesis and motility,inhibits the EGF effect on MMP-9 secretion,,rapidly diffuses across membranes,,,,,,,
"EGF: epidermal growth factor (Roche), used as stimulus at 100 ng/ml",,,,,,,,,,robustly increases BrdU incorporation,robustly incorporate BrdU,robustly incorporate BrdU,almost complete wound closure,significantly increases BrdU incorporation,significantly increases,about 2 fold
